{"source": "paper PMC7193943", "about": "(European journal of medicinal chemistry, 2019)", "key": {"[1]": {"system": "P-glycoprotein efflux transporter", "conditions": "Caco-2 colorectal adenocarcinoma cells; cited from earlier work"}, "[2]": {"assay": "Solubility in aqueous media", "type": "physicochemical"}, "[3]": {"conditions": "mice, 24 h after oral administration; cited from earlier work"}, "[4]": {"system": "ALK-positive H2228 and ALK-negative H441 cells", "assay": "Live cell tracer uptake assay", "type": "cell-based, human", "conditions": "after 30 min of incubation"}, "H441 cells": {"system": "H441 cells", "assay": "Cytotoxicity assay", "type": "cell-based, human", "conditions": "72 h"}}}
{"smiles": "CCc1cc2c(cc1N1CCC(N3CCOCC3)CC1)C(C)(C)c1[nH]c3cc(C#N)ccc3c1C2=O", "note": "[Alectinib, 9-Ethyl-6,6-dimethyl-8-[4-(morpholin-4-yl)piperidin-1-yl]-11-oxo-6,11-dihydro-5H-benzo[b]carbazole-3-carbonitrile]", "values": [{"measurement": "transport by the P-glycoprotein efflux transporter", "setting": "[1]", "result": "not transported"}]}
{"smiles": "Cc1cc(Nc2ncc(Cl)c(Nc3ccccc3S(=O)(=O)C(C)C)n2)c(OC(C)C)cc1C1CCN(CCF)CC1", "note": "[Compound 9, 5-Chloro-N2–(2-isoprpoxy-5-methyl-4-(1-fluoroethylpiperidin-4-yl)phenyl)-N4-[2-(propane-2-sulfonyl)phenyl]pyrimidine-2,4-diamine]", "values": [{"measurement": "fold loss of potency versus parent drug", "setting": "H2228 cells", "result": "~10", "unit": "fold"}, {"measurement": "solubility in saline or PBS solutions", "setting": "[2]", "result": "not soluble"}]}
{"smiles": "Cc1cc(Nc2ncc(Cl)c(Nc3ccccc3S(=O)(=O)C(C)C)n2)c(OC(C)C)cc1C1CCNCC1", "note": "[Ceritinib, 5-Chloro-N2-(2-isopropoxy-5-methyl-4-(piperidin-4-yl)phenyl)-N4-(2-(isopropylsulfonyl)phenyl)pyrimidine-2,4-diamine, reference compound]", "values": [{"measurement": "drug found in the brain", "setting": "[3]", "result": 0.4, "unit": "%"}, {"measurement": "IC50", "setting": "H2228 cells", "result": 2900, "unit": "nM"}]}
{"smiles": "Cc1cc(Nc2ncc(Cl)c(Nc3ccccc3S(=O)(=O)C(C)C)n2)c(OC(C)C)cc1C1CCN(CCF)CC1", "note": "[[^18F]9]", "values": [{"measurement": "solubility in water or saline", "setting": "[2]; water or saline", "result": "insoluble"}, {"measurement": "cell-associated radioactivity, H2228 vs H441", "setting": "[4]", "result": "higher uptake in the ALK-positive H2228 cells"}]}
{"smiles": "CCc1cc2c(cc1N1CCC(N3CCOCC3)CC1)C(C)(C)c1c(c3ccc(C#N)cc3n1CCF)C2=O", "note": "[Compound 4, 9-Ethyl-6,6-dimethyl-8-[4-(morpholin-4-yl)piperidin-1-yl]-11-oxo-6,11-dihydro-5(2-fluoroethyl)-benzo[b]carbazole-3-carbonitrile]", "values": [{"measurement": "effect on ALK-negative H441 cells (cytotoxicity)", "setting": "H441 cells", "result": "no substantial effect"}, {"measurement": "solubility in saline or PBS solutions", "setting": "[2]", "result": "not soluble"}]}
{"smiles": "C[C@@H](Oc1cc(-c2cnn(C3CCN(CCF)CC3)c2)cnc1N)c1c(Cl)ccc(F)c1Cl", "note": "[Compound 1, 3-((R)-1-(2,6-dichloro-3-fluorophenyl)ethoxy)-5-(1-(fluoroethylpiperidin-4-yl)-1H-pyrazol-4-yl)pyridin-2-amine]", "values": [{"measurement": "fold loss of potency versus parent drug", "setting": "H2228 cells", "result": "less than 3 fold"}, {"measurement": "solubility in saline or PBS solutions", "setting": "[2]", "result": "not soluble"}]}
